Data published in patent US10800784B2, “Nitrogen-containing heterocyclic amide compound and pharmaceutical use thereof” (Japan Tobacco Inc., priority 2018, dated 2020).

Assays:
human PDHK1 (hPDHK1) = human PDHK1 (hPDHK1) (Homo sapiens (Human), UniProt Q15118); assay: Inhibitory action of PDHK1 activity in vitro (residual PDH activity after PDHK reaction); assay type: biochemical; settings: for IC50: PDH/hPDHK1 complex solution, PDHK reaction at room temperature for 45 min, NADH absorbance at 340 nm, read-out: hPDK1 IC50; for inhibition at 0.003 µM: at 3 nmol/L, shown when IC50 value could not be calculated, read-out: hPDHK1 inhibitory rate at the lowest concentration of the test compound
Experimental: (§1) The inhibitory action of PDHK activity was assessed indirectly by measuring the residual PDH activity after PDHK reaction in the presence of a test compound.
(Inhibitory Action of PDHK1 Activity)
In the case of human PDHK1 (hPDHK1, NCBI Reference Database Accession number NM_002610.3), a 1.3 kbp fragment encoding this protein was isolated from human liver cDNA by polymerase chain reaction (PCR). Modified hPDHK1 cDNA wherein FLAG-Tag sequence was added to the N terminus was prepared by PCR and ligated to the NdeI/EcoRI site of pET-17b vector (Merck MGaA, model number 69663-3). The recombinant construct was transformed into Escherichia coli DH5a (TOYOBO, model number DNA-903). The recombinant clones were identified, and plasmid DNA was isolated and subjected to the DNA sequence analysis. One clone which had the expected nucleic acid sequence was selected for expression work.
For expression of hPDHK1 activity, Escherichia coli strain BL21(DE3) cells (Merck KGaA, model number 69450-4) were transformed with the pET17b vector containing modified hPDHK1 cDNA. The Escherichia coli were grown to an optical density 0.6 ([…]) at 30° C. Protein expression was induced by the addition of 500 μmol/L isopropyl-β-thiogalactopyranoside. The Escherichia coli were cultured at 20° C. for 17-18 hr and harvested by centrifugation.
The harvested Escherichia coli was resuspended in a suspension buffer (20 mmol/L N-(2-hydroxyethyl)piperazine-N′-2-ethanesulfonic acid-sodium hydroxide (HEPES-NaOH), 500 mmol/L sodium chloride, 1% ethylene glycol, and 0.1% polyoxyethylene-polyoxypropylene block copolymer (Pluronic F-68), complete, EDTA-free (pH 8.0)) and disrupted by a microfluidizer M-110H (MIZUHO INDUSTRIAL CO., LTD.) or ultrasonication. The precipitate was removed by centrifugation and the supernatant was added to DDDDK-tagged Protein PURIFICATION GEL (MBL, model number 3329). DDDDK-tagged Protein PURIFICATION GEL was washed with a washing buffer (20 mmol/L HEPES-NaOH, 500 mmol/L sodium chloride, 1% ethylene glycol, 0.1% pluronic F-68 (pH 8.0)) and the bound protein was eluted with elution buffer 1 (20 mmol/L HEPES-NaOH, 100 μg/mL peptide (amino acid sequence DYKDDDDK) (SEQ ID NO: 1), 500 mmol/L sodium chloride, 1% ethylene glycol, 0.1% pluronic F-68 (pH 8.0)).
The eluted fractions containing FLAG-Tagged protein were pooled, concentrated by an ultrafiltration method, added to a gel filtration column (HiLoad 26/60 Superdex 200 (GE Healthcare, model number 17-1070-01)), and eluted with elution buffer 2 (20 mmol/L HEPES-NaOH, 150 mmol/L sodium chloride, 0.5 mmol/L ethylenediaminetetraacetic acid (EDTA), 1% ethylene glycol, 0.1% pluronic F-68 (pH 8.0)). The eluted fractions were pooled and preserved at −80° C.
(§2) 0.025 U/mL PDH (porcine heart PDH complex, Sigma P7032) and 0.5 μg/mL hPDHK1 were mixed in an assay buffer (50 mmol/L 3-morpholinopropanesulfonic acid (pH 7.0), 20 mmol/L dipotassium hydrogen phosphate, 60 mmol/L potassium chloride, 2 mmol/L magnesium chloride, 0.4 mmol/L EDTA, 0.2% poloxamer, 2 mmol/L dithiothreitol), and the mixture was incubated at 4° C. overnight to obtain a PDH/hPDHK1 complex solution. In the assay buffer, 0.025 U/mL PDH was mixed and incubated at 4° C. overnight to prepare a PDH solution.
The test compounds were diluted with dimethyl sulfoxide (DMSO). To measure an inhibitory action of the test compound on the PDHK activity in the PDH/hPDHK1 complex solution, PDH/hPDHK1 complex solution (20 μL), test compound (1.5 μL) and 0.353 μmol/L ATP (diluted with assay buffer) (8.5 μL) were added to a 384 well microplate (Greiner Bio-One 781801) and PDHK reaction was performed at room temperature for 45 min (test compound well). DMSO (1.5 μL) was added to control wells instead of test compound. In addition, DMSO (1.5 μL) was added to blank wells instead of the test compound, and PDH solution was added instead of the PDH/hPDHK1 complex solution. […]

human PDHK2 (hPDHK2) = human PDHK2 (hPDHK2) (Homo sapiens (Human), UniProt Q15119); assay: Inhibitory action of PDHK2 activity in vitro (residual PDH activity after PDHK reaction); assay type: biochemical; settings: for IC50: PDH/hPDHK2 complex solution, PDHK reaction at room temperature for 45 min, NADH absorbance at 340 nm, read-out: kPDK2 IC50
Experimental: as §1
(Inhibitory Action of PDHK2 Activity)
In the case of human PDHK2 (hPDHK2, NCBI Reference Database Accession number NM_002611.4), modified hPDHK2 cDNA wherein FLAG-Tag sequence was added to the N terminus of hPDHK2 cDNA clone (pReceiver-M01/PDK2-GeneCopoeia) as the base was prepared by PCR and ligated to the NdeI/EcoRI site of pET-17b vector. The recombinant construct was transformed into Escherichia coli DH5a. The recombinant clones were identified, and plasmid DNA was isolated and subjected to the DNA sequence analysis. One clone which had the expected nucleic acid sequence was selected for expression work.
For expression of hPDHK2 activity, Escherichia coli strain BL21(DE3) cells were transformed with the pET17b vector containing modified hPDHK2 cDNA. The Escherichia coli were grown to an optical density 0.6 ([…]) at 30° C. Protein expression was induced by the addition of 500 μmol/L isopropyl-β-thiogalactopyranoside. The Escherichia coli were cultured at 20° C. for 17-18 hr and harvested by centrifugation. The harvested Escherichia coli was resuspended in a suspension buffer (20 mmol/L HEPES-NaOH, 500 mmol/L sodium chloride, 1% ethylene glycol, 0.1% pluronic F-68 (pH 8.0), cOmplete, EDTA-free (pH 8.0)), and disrupted by a microfluidizer. The precipitate was removed by centrifugation and the supernatant was added to DDDDK-tagged Protein PURIFICATION GEL. DDDDK-tagged Protein PURIFICATION GEL was washed with a washing buffer (20 mmol/L HEPES-NaOH, 500 mmol/L sodium chloride, 1% ethylene glycol, 0.1% pluronic F-68 (pH 8.0)) and the bound protein was eluted with elution buffer 1 (20 mmol/L HEPES-NaOH, 100 μg/mL peptide (amino acid sequence DYKDDDDK) (SEQ ID NO: 1), 500 mmol/L sodium chloride, 1% ethylene glycol, 0.1% pluronic F-68 (pH 8.0)). The eluted fractions containing FLAG-Tagged protein were pooled, concentrated by an ultrafiltration method, added to a gel filtration column (HiLoad 26/60 Superdex 200), and eluted with elution buffer 2 (20 mmol/L HEPES-NaOH, 150 mmol/L sodium chloride, 0.5 mmol/L ethylenediaminetetraacetic acid (EDTA), 1% ethylene glycol, 0.1% pluronic F-68 (pH 8.0)). The eluted fractions were pooled and preserved at −80° C.
as §2, with “PDH” for “PDH (porcine heart PDH complex, Sigma P7032)”, “hPDHK2” for “hPDHK1”, “PDH/hPDHK2” for “PDH/hPDHK1”
The test compounds were diluted with DMSO. To measure an inhibitory action of the test compound on the PDHK activity in the PDH/hPDHK2 complex solution, PDH/hPDHK2 complex solution (20 μL), test compound (1.5 μL) and 1.06 μmol/L ATP (diluted with assay buffer) (8.5 μL) were added to a 384 well microplate and PDHK reaction was performed at room temperature for 45 min (test compound well). DMSO (1.5 μL) was added to control wells instead of test compound. In addition, DMSO (1.5 μL) was added to blank wells instead of the test compound, and PDH solution was added instead of the PDH/hPDHK2 complex solution. To measure an inhibitory action of the test compound on the PDHK activity inherent in the PDH solution, a test compound was added and the PDH solution instead of the PDH/hPDHK2 complex solution was added to a blank+test compound well.
Then, 10 μL of substrates (5 mmol/L sodium pyruvate, 5 mmol/L Coenzyme A, 12 mmol/L NAD, 5 mmol/L thiamine pyrophosphate, diluted with assay buffer) were added. The mixture was incubated at room temperature for 90 min, and the residual PDH activity was measured. […]

Sequence of human PDHK1 (hPDHK1) (Q15118 29-436): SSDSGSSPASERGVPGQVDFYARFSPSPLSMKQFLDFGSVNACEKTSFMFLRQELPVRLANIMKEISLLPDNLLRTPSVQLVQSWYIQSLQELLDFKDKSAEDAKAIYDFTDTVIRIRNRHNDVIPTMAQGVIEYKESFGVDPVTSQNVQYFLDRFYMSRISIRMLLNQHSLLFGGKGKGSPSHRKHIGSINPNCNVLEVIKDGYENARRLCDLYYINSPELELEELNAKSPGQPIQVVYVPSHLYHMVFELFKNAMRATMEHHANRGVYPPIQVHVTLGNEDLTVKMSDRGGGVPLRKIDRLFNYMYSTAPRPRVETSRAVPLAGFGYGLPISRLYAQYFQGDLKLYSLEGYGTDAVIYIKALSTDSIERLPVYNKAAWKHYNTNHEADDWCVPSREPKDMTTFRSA

| IC50 (human PDHK1 (hPDHK1)) [nM] | inhibition at 0.003 µM (human PDHK1 (hPDHK1)) [%] | IC50 (human PDHK2 (hPDHK2)) [nM] | hPDHK2 inhibitory rate at the lowest concentration of the test compound (human PDHK2 (hPDHK2); lowest concentration of the test compound in the assay (<3 nmol/L), shown when IC50 value could not be calculated) [%] | Structure (SMILES) |
| --- | --- | --- | --- | --- |
| < 3 | 73 | 4 | – | C[C@H]1CN(C(=O)c2cccc(-c3ccc(F)cc3)n2)Cc2cnc([C@@](C)(O)C(F)(F)F)n21 [Example 38] |
| 46 | – | 18 | – | C[C@H]1CN(C(=O)c2ncccc2-c2ccc(F)cc2)Cc2cnc([C@@](C)(O)C(F)(F)F)n21 [Example 39] |
| 5 | – | 6 | – | C[C@H]1CN(C(=O)c2c(Cl)c(-c3ccc(C#N)cc3)nn2C)Cc2cnc([C@@](C)(O)C(F)(F)F)n21 [Example 40, 4-(4-chloro-1-methyl-5-((S)-5-methyl-3-((R)-1,1,1-trifluoro-2-hydroxypropan-2-yl)-5,6,7,8-tetrahydroimidazo[1,5-a]pyrazine-7-carbonyl)-1H-pyrazol-3-yl)benzonitrile] |
| 6 | – | 6 | – | C[C@H]1CN(C(=O)c2nn(C)c(-c3ccc(C#N)cc3)c2Cl)Cc2cnc([C@@](C)(O)C(F)(F)F)n21 [Example 41] |
| 4 | – | 5 | – | C[C@H]1CN(C(=O)c2ccc(-c3ccc(F)cc3)cn2)Cc2cnc([C@@](C)(O)C(F)(F)F)n21 [Example 42] |
| < 3 | 52 | 5 | – | C[C@H]1CN(C(=O)c2cccc(-c3ccc(C#N)cc3)n2)Cc2cnc([C@@](C)(O)C(F)(F)F)n21 [Example 43] |
| 5 | – | 7 | – | C[C@H]1CN(C(=O)c2cc(-c3ccc(S(C)(=O)=O)cc3)nn2C)Cc2cnc([C@@](C)(O)C(F)(F)F)n21 [Example 44] |
| 9 | – | 8 | – | C[C@H]1CN(C(=O)c2ccc(-c3ccc(C#N)cc3)cn2)Cc2cnc([C@@](C)(O)C(F)(F)F)n21 [Example 45] |
| 5 | – | 5 | – | Cc1nc(-c2ccc(C#N)cc2)oc1C(=O)N1Cc2cnc([C@@](C)(O)C(F)(F)F)n2[C@@H](C)C1 [Example 46] |
| < 3 | 53 | 4 | – | C[C@H]1CN(C(=O)c2cc(-c3ccc(F)cc3F)nn2C)Cc2cnc([C@@](C)(O)C(F)(F)F)n21 [Example 47] |
| < 3 | 88 | < 3 | 81 | C[C@H]1CN(C(=O)c2ccnc(-c3ccc(F)cc3)c2)Cc2cnc([C@@](C)(O)C(F)(F)F)n21 [Example 48, (2-(4-fluorophenyl)pyridin-4-yl)((S)-5-methyl-3-((R)-1,1,1-trifluoro-2-hydroxypropan-2-yl)-5,6-dihydroimidazo[1,5-a]pyrazin-7(8H)-yl)methanone] |
| 3 | – | 3 | – | C[C@H]1CN(C(=O)c2cccc(-c3ccccn3)c2)Cc2cnc([C@@](C)(O)C(F)(F)F)n21 [Example 49] |
| 4 | – | 5 | – | C[C@H]1CN(C(=O)c2cc(-c3ccc(C#N)cc3F)nn2C)Cc2cnc([C@@](C)(O)C(F)(F)F)n21 [Example 50] |
| 4 | – | 6 | – | C[C@H]1CN(C(=O)c2ccc(C3(O)CCC3)cc2)Cc2cnc([C@@](C)(O)C(F)(F)F)n21 [Example 51] |
| 4 | – | 6 | – | C[C@H]1CN(C(=O)c2ccc(C3(O)CCCC3)cc2)Cc2cnc([C@@](C)(O)C(F)(F)F)n21 [Example 52] |
| 4 | – | 8 | – | C[C@H]1CN(C(=O)c2cc(-c3ccc(C#N)cc3)n(C3CC3)n2)Cc2cnc([C@@](C)(O)C(F)(F)F)n21 [Example 53, 4-(1-cyclopropyl-3-((S)-5-methyl-3-((R)-1,1,1-trifluoro-2-hydroxypropan-2-yl)-5,6,7,8-tetrahydroimidazo[1,5-a]pyrazine-7-carbonyl)-1H-pyrazol-5-yl)benzonitrile] |
| < 3 | 53 | 5 | – | C[C@H]1CN(C(=O)c2ccnc(-c3ccc(F)cc3C#N)c2)Cc2cnc([C@@](C)(O)C(F)(F)F)n21 [Example 54] |
| < 3 | 54 | 4 | – | C[C@H]1CN(C(=O)c2cc(-c3ccc(F)cc3)ccn2)Cc2cnc([C@@](C)(O)C(F)(F)F)n21 [Example 55] |
